Measured values from paper PMC12209990, “Effect of Cytochrome P450 3A Inhibition and Induction by Itraconazole and Rifampin on Tazemetostat Pharmacokinetics in Patients With Advanced Malignancies” (Clinical Pharmacology in Drug Development, 2025).
Like-named read-outs stand apart in the source and are kept apart here. Marks after values point to notes of the source that are not given here.

Columns and labels:
[1] = Safety (TEAEs) Part 1: tazemetostat coadministered with itraconazole
Protocol: Part 1 of the study evaluated the DDI between tazemetostat and itraconazole. On the mornings of Days 1 and 15, patients received a single dose of tazemetostat 400 mg orally. On Days 3‐14, patients received tazemetostat 400 mg twice daily (morning and evening). On Days 18‐20, patients received itraconazole 200 mg orally once daily in the morning. On Days 21‐35, tazemetostat 400 mg twice daily was coadministered in the morning with a single dose of itraconazole 200 mg. On Day 36, patients received a single dose of tazemetostat 400 mg coadministered in the morning with a single dose of itraconazole 200 mg. On Days 37 and 38, patients received a single dose of itraconazole 200 mg (Figure 1A). Throughout Part 1, administration of itraconazole occurred 1 hour after a meal.
(§1) Safety was assessed by monitoring treatment‐emergent adverse events (TEAEs) and vital signs, electrocardiography, and clinical laboratory tests. TEAEs were defined as adverse events that started or worsened in severity on or after the date of the first dose of the study drug through 30 days after the last dose. Treatment‐related TEAEs were summarized by each study drug for both study parts. Adverse events were coded using the Medical Dictionary for Regulatory Activities Version 23.1 and graded per Common Terminology Criteria for Adverse Events Version 5.0.

[2] = Safety (TEAEs) Part 2: tazemetostat coadministered with rifampin
Protocol: (§2) Part 2 of the study evaluated the DDI between tazemetostat and rifampin. On the mornings of Days 1 and 15, patients received a single dose of tazemetostat 800 mg orally. On Days 3‐14, patients received tazemetostat 800 mg twice daily. On Days 17‐23, patients received tazemetostat 800 mg twice daily, coadministered in the morning with a single dose of rifampin 600 mg orally. On the morning of Day 24, patients received a single dose of tazemetostat 800 mg coadministered with rifampin 600 mg. On the morning of Day 25, patients received rifampin 600 mg (Figure 1B). Throughout Part 2, administration of rifampin occurred 1 hour before a meal.
as §1

CYP3A = system: CYP3A; design: method as in PMID 29473431, PMID 38520556, PMID 33492746; details: in vitro; cited from earlier work
[3] = Phase I DDI study Part 2: tazemetostat plasma PK alone and with rifampin (noncompartmental analysis); assay type: in vivo, human; details: for AUC0‐12h ratio, geoLSM (90% CI) / Cmax ratio, geoLSM (90% CI): steady state with rifampin vs alone, Day 24 versus Day 15; for RacAUC (AUC0‐12h accumulation ratio), geoLSM (90% CI) / RacCmax (Cmax accumulation ratio), geoLSM (90% CI): tazemetostat 800 mg alone, Day 15 versus Day 1; for Tmax / AUC / AUC(0-t) / Cmax / half-life: human; for Tmax: read-out: tmax, median (range)
From the text: This was a Phase I, multicenter, open‐label, 2‐part study encompassing a fixed‐sequence design that aimed to characterize the PK of tazemetostat when administered as single and twice‐daily oral doses alone or in combination with either itraconazole (Part 1) or rifampin (Part 2). Secondary objectives were to evaluate the safety profile of tazemetostat when coadministered with either itraconazole (Part 1) or rifampin (Part 2).
as §2
In Part 2, plasma concentrations of tazemetostat following tazemetostat dosing on Days 1, 15, and 24 were quantified for PK analyses before dosing (0 hour) and at 0.5, 1, 1.5, 2, 4, 6, 8, 12, 24, 36, and 48 hours.
Plasma concentrations of tazemetostat, over the ranges of 1.00‐2000 ng/mL, were quantified by a fully validated liquid chromatography with tandem mass spectrometric detection analytical method. Samples that had no detectable peak or had the calculated concentration <1.00 ng/mL were reported as below the lower limit of quantification. Tazemetostat analysis consisted of protein precipitation extraction and separation using mobile phases of 100 mM ammonium formate/water (1:9 v/v) (mobile phase A) and 100 mM ammonium formate/acetonitrile (1:9 v/v) (mobile phase B). Detection was achieved using an API‐5500 mass spectrometer (AB Sciex) using electrospray ionization (positive‐ion mode) in the multiple reaction monitoring mode. The multiple reaction monitoring mode m/z transitions monitored were […] for tazemetostat and the dwell time was set at 300 milliseconds.
Plasma concentration‐time data for tazemetostat were analyzed by noncompartmental analysis using the validated software program Phoenix WinNonlin Professional Version 8.3 (Certara Inc., Mountain View, CA).

[4] = Part 2, tazemetostat 800 mg twice daily alone, multiple dosing, Day 15, plasma

CCN(c1cc(-c2ccc(CN3CCOCC3)cc2)cc(C(=O)NCc2c(C)cc(C)[nH]c2=O)c1C)C1CCOCC1 [Tazemetostat]
Deaths due to serious TEAEs ([1]; Part 1, within 30 days following the last dose, tazemetostat with itraconazole, neither considered treatment related): Two deaths | Any TEAE Grade 3 or 4, patients ([1]; human, in vivo): 11 (52.4) n (%) | Any TEAE leading to dose reduction, patients ([1]; human, in vivo): 0 n (%) | Any TEAE leading to study drug discontinuation, patients ([1]; human, in vivo): 1 (4.8) n (%) | Any TEAE leading to study drug interruption, patients ([1]; human, in vivo): 9 (42.9) n (%) | Any TESAE, patients ([1]; human, in vivo): 8 (38.1) n (%) | Any treatment-related TEAE Grade 3 or 4, patients ([1]; human, in vivo): 2 (9.5) n (%) | Any treatment-related TESAE, patients ([1]; human, in vivo): 0 n (%) | TEAE anemia, frequency ([1]; human, in vivo): 28.6% | TEAE constipation, frequency ([1]; human, in vivo): 23.8% | TEAE decreased appetite, frequency ([1]; human, in vivo): 33% | TEAE dyspnea, frequency ([1]; human, in vivo): 33% | TEAE fatigue, frequency ([1]; human, in vivo): 28.6% | TEAE nausea, frequency ([1]; human, in vivo): 28.6% | Treatment-related TEAE Grade 3 or 4, related to the named study drug, patients ([1]; human, in vivo): 2 (9.5) n (%) | Treatment-related TEAEs, related to the named study drug, patients ([1]; human, in vivo): 12 (57.1) n (%) | Treatment-related TESAE, related to the named study drug, patients ([1]; human, in vivo): 0 n (%) | Treatment‐related Grade 3/4 TEAE anemia ([1]; human, in vivo): 9.5% | Treatment‐related Grade 3/4 TEAE hyponatremia ([1]; human, in vivo): 4.8% | Deaths resulting from TEAEs ([2]; Part 2): no deaths | Any TEAE Grade 3 or 4, patients ([2]; human, in vivo): 13 (61.9) n (%) | Any TEAE leading to dose reduction, patients ([2]; human, in vivo): 2 (9.5) n (%) | Any TEAE leading to study drug discontinuation, patients ([2]; human, in vivo): 0 n (%) | Any TEAE leading to study drug interruption, patients ([2]; human, in vivo): 7 (33.3) n (%) | Any TEAE, patients ([2]; human, in vivo): 21 (100.0) n (%) | Any TESAE, patients ([2]; human, in vivo): 9 (42.9) n (%) | Any treatment-related TEAE Grade 3 or 4, patients ([2]; human, in vivo): 7 (33.3) n (%) | Any treatment-related TESAE, patients ([2]; human, in vivo): 1 (4.8) n (%) | Grade 3/4 TEAE decreased lymphocyte count ([2]; human, in vivo): 9.5% | TEAE anemia, frequency ([2]; human, in vivo): 23.8% | TEAE constipation, frequency ([2]; human, in vivo): 23.8% | TEAE cough, frequency ([2]; human, in vivo): 28.6% | TEAE diarrhea, frequency ([2]; human, in vivo): 33.3% | TEAE fatigue, frequency ([2]; human, in vivo): 42.9% | TEAE nausea, frequency ([2]; human, in vivo): 23.8% | Tazemetostat‐related Grade 3/4 TEAE acute kidney injury ([2]; human, in vivo): 4.8% | Tazemetostat‐related Grade 3/4 TEAE alanine aminotransferase increased ([2]; human, in vivo): 4.8% | Tazemetostat‐related Grade 3/4 TEAE anemia ([2]; human, in vivo): 9.5% | Tazemetostat‐related Grade 3/4 TEAE aspartate aminotransferase ([2]; human, in vivo): 4.8% | Tazemetostat‐related Grade 3/4 TEAE diarrhea ([2]; human, in vivo): 4.8% | Tazemetostat‐related Grade 3/4 TEAE syncope ([2]; human, in vivo): 4.8% | Treatment-related TEAE Grade 3 or 4, related to the named study drug, patients ([2]; human, in vivo): 7 (33.3) n (%) | Treatment-related TEAEs, related to the named study drug, patients ([2]; human, in vivo): 16 (76.2) n (%) | Treatment-related TESAE, related to the named study drug, patients ([2]; human, in vivo): 1 (4.8) n (%) | Any TEAE, patients ([2]; in vivo): all patients | metabolism by CYP3A (CYP3A): mainly metabolized by cytochrome P450 (CYP), family 3, subfamily A (CYP3A) | AUC0‐12h ratio, geoLSM (90% CI) ([3]; Part 2): 0.163 (0.128‐0.208) ^d | Cmax ratio, geoLSM (90% CI) ([3]; Part 2): 0.164 (0.122‐0.219) ^d | AUC0‐12h ratio, geoLSM (90% CI) ([3]; Part 2, listed as tazemetostat): 0.163 | Cmax ratio, geoLSM (90% CI) ([3]; Part 2, listed as tazemetostat): 0.164 | RacAUC (AUC0‐12h accumulation ratio), geoLSM (90% CI) ([3]; Part 2): 0.816 (0.638‐1.04) ^e | RacCmax (Cmax accumulation ratio), geoLSM (90% CI) ([3]; Part 2): 0.828 (0.635‐1.08) ^e | RacAUC (AUC0‐12h accumulation ratio), geoLSM (90% CI) ([3]; Part 2, listed as tazemetostat): 0.816 | RacCmax (Cmax accumulation ratio), geoLSM (90% CI) ([3]; Part 2, listed as tazemetostat): 0.828 | t1/2, GeoMean (CV%) [3, 4]: 7.55 (20.3) hour | tmax, median (range) [3, 4]: 1.00 (0.63‐4.00) hour | Tmax ([3]; oral, Part 2, tazemetostat 800 mg multiple dosing with rifampin 600 mg once daily, Day 24, plasma): 1.01 h | AUC ([3]; plasma, oral, 800 mg, Part 2, tazemetostat 800 mg twice daily alone, multiple dosing, Day 15, plasma, read-out: AUC0‐12 h, GeoMean (CV%)): 3610 ng·h/mL | AUC ([3]; plasma, oral, 800 mg, Part 2, tazemetostat 800 mg twice daily alone, multiple dosing, Day 15, plasma, read-out: AUC0‐12 h, mean (SD)): 4330 ng·h/mL | AUC(0-t) ([3]; plasma, oral, 800 mg, Part 2, tazemetostat 800 mg twice daily alone, multiple dosing, Day 15, plasma, read-out: AUClast, GeoMean (CV%)): 4270 ng·h/mL | AUC(0-t) ([3]; plasma, oral, 800 mg, Part 2, tazemetostat 800 mg twice daily alone, multiple dosing, Day 15, plasma, read-out: AUClast, mean (SD)): 5220 ng·h/mL | Cmax ([3]; plasma, oral, 800 mg, Part 2, tazemetostat 800 mg twice daily alone, multiple dosing, Day 15, plasma, read-out: Cmax, GeoMean (CV%)): 1100 ng/mL | Cmax ([3]; plasma, oral, 800 mg, Part 2, tazemetostat 800 mg twice daily alone, multiple dosing, Day 15, plasma, read-out: Cmax, mean (SD)): 1380 ng/mL | half-life ([3]; plasma, oral, 800 mg, Part 2, tazemetostat 800 mg twice daily alone, multiple dosing, Day 15, plasma, read-out: t1/2, mean (SD) (converted)): 7.7 h | AUC ([3]; plasma, oral, Part 2, tazemetostat 800 mg multiple dosing with rifampin 600 mg once daily, Day 24, plasma, read-out: AUC0‐12 h, GeoMean (CV%)): 588 ng·h/mL | AUC ([3]; plasma, oral, Part 2, tazemetostat 800 mg multiple dosing with rifampin 600 mg once daily, Day 24, plasma, read-out: AUC0‐12 h, mean (SD)): 770 ng·h/mL | AUC(0-t) ([3]; plasma, oral, Part 2, tazemetostat 800 mg multiple dosing with rifampin 600 mg once daily, Day 24, plasma, read-out: AUClast, GeoMean (CV%)): 676 ng·h/mL | AUC(0-t) ([3]; plasma, oral, Part 2, tazemetostat 800 mg multiple dosing with rifampin 600 mg once daily, Day 24, plasma, read-out: AUClast, mean (SD)): 934 ng·h/mL | Cmax ([3]; plasma, oral, Part 2, tazemetostat 800 mg multiple dosing with rifampin 600 mg once daily, Day 24, plasma, read-out: Cmax, GeoMean (CV%)): 181 ng/mL | Cmax ([3]; plasma, oral, Part 2, tazemetostat 800 mg multiple dosing with rifampin 600 mg once daily, Day 24, plasma, read-out: Cmax, mean (SD)): 233 ng/mL | half-life ([3]; plasma, oral, Part 2, tazemetostat 800 mg multiple dosing with rifampin 600 mg once daily, Day 24, plasma, read-out: t1/2, GeoMean (CV%) (converted)): 4.86 h | half-life ([3]; plasma, oral, Part 2, tazemetostat 800 mg multiple dosing with rifampin 600 mg once daily, Day 24, plasma, read-out: t1/2, mean (SD) (converted)): 5.06 h | AUC ([3]; plasma, po, 800 mg, Part 2, tazemetostat 800 mg oral single dose alone, Day 1, plasma, read-out: AUC0‐12 h, GeoMean (CV%)): 4420 ng·h/mL | AUC ([3]; plasma, po, 800 mg, Part 2, tazemetostat 800 mg oral single dose alone, Day 1, plasma, read-out: AUC0‐12 h, mean (SD)): 5310 ng·h/mL | AUC(0-t) ([3]; plasma, po, 800 mg, Part 2, tazemetostat 800 mg oral single dose alone, Day 1, plasma, read-out: AUClast, GeoMean (CV%)): 5200 ng·h/mL | AUC(0-t) ([3]; plasma, po, 800 mg, Part 2, tazemetostat 800 mg oral single dose alone, Day 1, plasma, read-out: AUClast, mean (SD)): 6370 ng·h/mL | Cmax ([3]; plasma, po, 800 mg, Part 2, tazemetostat 800 mg oral single dose alone, Day 1, plasma, read-out: Cmax, GeoMean (CV%)): 1330 ng/mL | Cmax ([3]; plasma, po, 800 mg, Part 2, tazemetostat 800 mg oral single dose alone, Day 1, plasma, read-out: Cmax, mean (SD)): 1550 ng/mL | half-life ([3]; plasma, po, 800 mg, Part 2, tazemetostat 800 mg oral single dose alone, Day 1, plasma, read-out: t1/2, GeoMean (CV%) (converted)): 6.22 h | half-life ([3]; plasma, po, 800 mg, Part 2, tazemetostat 800 mg oral single dose alone, Day 1, plasma, read-out: t1/2, mean (SD) (converted)): 6.49 h | Tmax ([3]; Part 2, tazemetostat 800 mg oral single dose alone, Day 1, plasma): 1.04 h | decrease of tazemetostat steady‐state exposure (Cmax and AUC0‐12h) by rifampin ([3]; steady state, Day 24/Day 15): approximately 84%
